For one test, the target named is T1, BRAF (Homo sapiens, UniProt P15056).
T1 construct: purchased Invitrogen
Briefly: In vitro kinase assay (Z'-LYTE), BRAF. It is filed as biochemical. The settings on record: read-out: % of inhibition of the kinase compared to the control. In a few lines: (§1)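 Compounds at a single dose (100 nM; 10 μM for both ABL forms) were run in a fluorescence coupled-enzyme kinase format relying on differential protease sensitivity of phospho versus non-phospho peptide. Reaction progress was measured ratiometrically from the FRET pair.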

Another test has as its target T2, EGFR (ErbB1) (Homo sapiens, UniProt P00533).
T2 construct: purchased Invitrogen
The test can be described thus: In vitro kinase assay (Z'-LYTE), EGFR (ErbB1). It is filed as biochemical. As to conditions: read-out: % of inhibition of the kinase compared to the control. In a few lines: as §1

For a further test, the target named is T3, EGFR (ErbB1) T790M L858R (Homo sapiens, UniProt P00533, L858R/T790M).
T3 construct: purchased Invitrogen
The test can be described thus: In vitro kinase assay (Z'-LYTE), EGFR (ErbB1) T790M L858R. The format is biochemical. As to conditions: read-out: % of inhibition of the kinase compared to the control. The method, boiled down: as §1

For another test, the target named is T4, FGFR2 (Homo sapiens, UniProt P21802).
T4 construct: purchased Invitrogen
Briefly: In vitro kinase assay (Z'-LYTE), FGFR2. The format is biochemical. The settings on record: read-out: % of inhibition of the kinase compared to the control. The method, boiled down: as §1

The target in a further test is T5, KDR (VEGFR2) (Homo sapiens, UniProt P35968).
T5 construct: purchased Invitrogen
The test can be described thus: In vitro kinase assay (Z'-LYTE), KDR (VEGFR2). The format is biochemical. The settings on record: read-out: % of inhibition of the kinase compared to the control. The method, boiled down:
as §1

The next test concerns the target T6, PDGFRA (PDGFR alpha) (Homo sapiens, UniProt P16234).
T6 construct: purchased Invitrogen
Briefly: In vitro kinase assay (Z'-LYTE), PDGFRA. The settings on record: read-out: % of inhibition of the kinase compared to the control. The format is biochemical. In a few lines: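 Z'-LYTE, HEPES pH 7.5/MgCl2/EGTA/BRIJ-35 buffer, 1% DMSO; cpd 100 nM (ABL, ABL T315I: 10 μM); ratiometric FRET read-out after protease development; % inhibition.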

In the next test the target is T7, SRC (Homo sapiens, UniProt P12931).
T7 construct: purchased Invitrogen
Briefly: In vitro kinase assay (Z'-LYTE), SRC. It is filed as biochemical. The settings on record: read-out: % of inhibition of the kinase compared to the control. The method, boiled down: as §1

A further test deals with T8, ABL (Homo sapiens, UniProt P00519).
T8 construct: purchased Invitrogen
Briefly: In vitro kinase assay (Z'-LYTE), ABL. The format is biochemical. The settings on record: read-out: % of inhibition of the kinase compared to the control. How it is done: (§2) 1) In Vitro Kinase Assays (Table 10 to Table 21)
(§3) The inhibitory activity of the compounds on several kinases including BRAF, EGFR (ErbB1), EGFR (ErbB1) T790M L858R, FGFR2, KDR (VEGFR2), PDGFRA (PDGFR alpha), SRC and other was evaluated by Invitrogen using the Z′-LYTE® technology. Briefly, the Z′-LYTE® biochemical assay employs a fluorescence-based, coupled-enzyme format and is based on the differential sensitivity of phosphorylated and non-phosphorylated peptides to proteolytic cleavage. The peptide substrate is labeled with two fluorophores—one at each end—that make up a FRET pair. A ratiometric method, which calculates the ratio (the Emission Ratio) of donor emission to acceptor emission after excitation of the donor fluorophore at 400 nm, is used to quantitate reaction progress.
(§4) The compounds are screened in 1% DMSO (final) in the well. For 10 point titrations, 3-fold serial dilutions are conducted from the starting concentration. All Peptide/Kinase Mixtures are diluted to a 2× working concentration in the appropriate Kinase Buffer. All ATP Solutions are diluted to a 4× working concentration in Kinase Buffer (50 mM HEPES pH 7.5, 0.01% BRIJ-35, 10 mM MgCl2, 1 mM EGTA). ATP Km apparent is previously determined using a Z′-LYTE® assay.
(§5) Each compound was incubated at a concentration of 100 nM (excepted to test the activity against ABL and ABL T315I for which the compounds were incubated at a concentration of 10 μM) and the tables 10 to 21 summarize the results obtained showing the inhibitory power of a compound.

The target in another test is T9, ABL T315I (Homo sapiens, UniProt P00519, T315I).
T9 construct: purchased Invitrogen
Briefly: In vitro kinase assay (Z'-LYTE), ABL T315I. The format is biochemical. The settings on record: read-out: % of inhibition of the kinase compared to the control. As to the method:
as §2, §3, §4, §5

For another test, the target named is T10, FGFR1 (Homo sapiens, UniProt P11362).
T10 construct: purchased Invitrogen
The test can be described thus: In vitro kinase assay (Z'-LYTE), FGFR1. It is filed as biochemical. As to conditions: read-out: % of inhibition of the kinase compared to the control. How it is done:
as §2, §3
(§6) The compounds are screened in 1% DMSO (final) in the well. For 10 point titrations, 3-fold serial dilutions are conducted from the starting concentration. All Peptide/Kinase Mixtures are diluted to a 2× working concentration in the appropriate Kinase Buffer. All ATP Solutions are diluted to a 4× working concentration in Kinase Buffer (50 mM HEPES pH 7.5, 0.01% BRIJ-35, 10 mM MgCl2, 1 mM EGTA). ATP Km apparent is previously determined using a Z′-LYTE® assay. […]

The target in the next test is T11, VEGFR1 (Homo sapiens, UniProt P17948).
T11 construct: purchased Invitrogen
The test can be described thus: In vitro kinase assay (Z'-LYTE), VEGFR1. As to conditions: read-out: % of inhibition of the kinase compared to the control. The format is biochemical. As to the method:
as §2, §3, §6

For the next test, the target named is T12, PDGFRB (Homo sapiens, UniProt P09619).
T12 construct: purchased Invitrogen
The test can be described thus: In vitro kinase assay (Z'-LYTE), PDGFRB. The format is biochemical. The settings on record: read-out: % of inhibition of the kinase compared to the control. As to the method:
as §2, §3, §6

A further test deals with A549 cell line. The test can be described thus: In vitro cell proliferation assay (MTT), A549. As to conditions: Homo sapiens; A549, 72 hr, MTT; read-out: EC50, anti-proliferative activity. It is filed as cell-based. The method, boiled down:
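Duplicate wells of each line were exposed for 72 hr to 10 nM–3 μM compound. HRMEC were plated at 1×10^4 cells per well, cancer cells at 5×10^3.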

The test system of a further test is BxPC-3 cell line. The test can be described thus: In vitro cell proliferation assay (MTT), BxPC-3. The format is cell-based. The settings on record: Homo sapiens; BxPC-3, 72 hr, MTT; read-out: EC50, anti-proliferative activity. As to the method: 2) In Vitro Cell Proliferation Assays (Table 22 to Table 35)
Cancer cell lines (5×10^3 cells per well) or HUVEC (1×10^4 cells per well) or HRMEC (1×10^4 cells per well) were distributed in 96-well plates and incubating in duplicate with escalating concentrations (10 nM to 3 μM) of compounds for 72 hr. Cell proliferation was measured using MTT (3[4,5-dimethylthiazol-2-yl]-2,5-diphenyltetrazolium bromide).

The text below walks through data of patent US9403823B2, “Protein kinase inhibitors” (ORIBASE PHARMA, priority 2012, dated 2016).

T6 sequence (P16234 24-1089): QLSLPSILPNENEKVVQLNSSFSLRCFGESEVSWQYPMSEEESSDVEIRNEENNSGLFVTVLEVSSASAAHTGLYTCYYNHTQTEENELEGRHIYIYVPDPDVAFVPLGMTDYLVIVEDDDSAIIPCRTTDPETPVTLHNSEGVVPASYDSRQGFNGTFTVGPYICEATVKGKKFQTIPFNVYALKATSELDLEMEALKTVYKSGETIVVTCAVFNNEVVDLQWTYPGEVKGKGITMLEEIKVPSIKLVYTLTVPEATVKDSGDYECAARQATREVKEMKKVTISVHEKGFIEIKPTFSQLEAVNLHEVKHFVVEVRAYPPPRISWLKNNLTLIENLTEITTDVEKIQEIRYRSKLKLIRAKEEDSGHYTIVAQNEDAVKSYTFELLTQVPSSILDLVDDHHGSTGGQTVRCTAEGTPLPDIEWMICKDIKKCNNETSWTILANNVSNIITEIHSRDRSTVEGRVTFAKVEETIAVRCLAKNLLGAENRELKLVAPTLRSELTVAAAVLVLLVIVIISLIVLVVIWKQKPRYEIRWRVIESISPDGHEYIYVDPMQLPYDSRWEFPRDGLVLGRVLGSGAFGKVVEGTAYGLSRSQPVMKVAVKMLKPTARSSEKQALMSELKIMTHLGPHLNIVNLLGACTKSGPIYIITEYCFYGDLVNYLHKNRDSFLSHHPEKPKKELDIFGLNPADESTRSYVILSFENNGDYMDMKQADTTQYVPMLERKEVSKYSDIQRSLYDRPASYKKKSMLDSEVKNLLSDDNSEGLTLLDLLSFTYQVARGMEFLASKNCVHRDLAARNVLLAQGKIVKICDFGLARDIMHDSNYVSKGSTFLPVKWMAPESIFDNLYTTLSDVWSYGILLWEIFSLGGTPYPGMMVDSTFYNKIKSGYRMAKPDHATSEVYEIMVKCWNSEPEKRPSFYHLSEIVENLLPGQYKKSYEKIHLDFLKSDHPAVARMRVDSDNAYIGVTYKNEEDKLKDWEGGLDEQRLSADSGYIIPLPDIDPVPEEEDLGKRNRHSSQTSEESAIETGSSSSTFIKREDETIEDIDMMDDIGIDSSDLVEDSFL
T7 sequence (P12931 whole entry): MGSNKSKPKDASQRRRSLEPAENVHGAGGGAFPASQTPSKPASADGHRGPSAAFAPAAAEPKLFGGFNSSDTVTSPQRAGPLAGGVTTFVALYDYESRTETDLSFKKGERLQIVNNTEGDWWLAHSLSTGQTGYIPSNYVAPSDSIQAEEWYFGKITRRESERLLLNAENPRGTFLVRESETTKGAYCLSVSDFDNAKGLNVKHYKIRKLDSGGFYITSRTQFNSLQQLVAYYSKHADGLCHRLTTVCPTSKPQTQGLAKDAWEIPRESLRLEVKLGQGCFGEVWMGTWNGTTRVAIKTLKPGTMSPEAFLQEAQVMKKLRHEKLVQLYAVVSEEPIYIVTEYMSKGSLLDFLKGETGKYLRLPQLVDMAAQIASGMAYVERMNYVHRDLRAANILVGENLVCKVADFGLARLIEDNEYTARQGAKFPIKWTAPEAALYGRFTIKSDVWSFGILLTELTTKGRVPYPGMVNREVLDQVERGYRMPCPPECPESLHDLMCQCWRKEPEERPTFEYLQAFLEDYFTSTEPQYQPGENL
T5 sequence (P35968 20-1356): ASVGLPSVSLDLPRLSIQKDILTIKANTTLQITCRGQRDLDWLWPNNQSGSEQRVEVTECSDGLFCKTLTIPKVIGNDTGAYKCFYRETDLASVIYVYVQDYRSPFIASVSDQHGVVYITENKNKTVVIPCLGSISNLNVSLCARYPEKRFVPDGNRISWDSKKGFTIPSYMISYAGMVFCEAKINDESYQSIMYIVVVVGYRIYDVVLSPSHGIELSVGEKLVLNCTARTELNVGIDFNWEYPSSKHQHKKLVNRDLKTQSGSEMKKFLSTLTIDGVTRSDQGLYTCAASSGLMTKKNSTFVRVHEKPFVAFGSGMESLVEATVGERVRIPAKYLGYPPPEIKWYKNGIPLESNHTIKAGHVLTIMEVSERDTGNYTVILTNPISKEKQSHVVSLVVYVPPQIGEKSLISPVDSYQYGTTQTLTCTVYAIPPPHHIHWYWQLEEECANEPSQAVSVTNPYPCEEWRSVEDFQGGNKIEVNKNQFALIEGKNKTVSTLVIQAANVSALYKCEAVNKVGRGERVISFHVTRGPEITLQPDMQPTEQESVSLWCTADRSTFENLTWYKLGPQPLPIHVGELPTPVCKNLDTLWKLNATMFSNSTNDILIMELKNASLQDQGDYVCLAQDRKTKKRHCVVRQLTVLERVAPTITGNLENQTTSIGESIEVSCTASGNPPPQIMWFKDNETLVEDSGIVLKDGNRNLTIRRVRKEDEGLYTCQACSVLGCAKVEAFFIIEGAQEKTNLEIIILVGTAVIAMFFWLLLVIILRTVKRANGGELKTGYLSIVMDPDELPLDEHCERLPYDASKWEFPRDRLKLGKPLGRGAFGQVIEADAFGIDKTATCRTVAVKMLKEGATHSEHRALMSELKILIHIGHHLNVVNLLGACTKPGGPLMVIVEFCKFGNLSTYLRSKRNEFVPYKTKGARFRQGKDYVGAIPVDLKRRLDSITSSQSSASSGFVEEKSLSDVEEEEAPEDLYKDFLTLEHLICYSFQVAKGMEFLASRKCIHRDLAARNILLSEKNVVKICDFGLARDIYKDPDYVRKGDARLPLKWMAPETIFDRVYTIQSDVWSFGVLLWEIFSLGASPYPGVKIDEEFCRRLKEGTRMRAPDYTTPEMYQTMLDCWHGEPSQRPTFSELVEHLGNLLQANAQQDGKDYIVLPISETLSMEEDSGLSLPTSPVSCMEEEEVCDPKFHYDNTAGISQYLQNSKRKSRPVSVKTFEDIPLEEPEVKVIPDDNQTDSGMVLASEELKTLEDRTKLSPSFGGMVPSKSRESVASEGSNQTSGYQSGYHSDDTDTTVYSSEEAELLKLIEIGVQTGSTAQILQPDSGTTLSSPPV
T4 sequence (P21802 22-821): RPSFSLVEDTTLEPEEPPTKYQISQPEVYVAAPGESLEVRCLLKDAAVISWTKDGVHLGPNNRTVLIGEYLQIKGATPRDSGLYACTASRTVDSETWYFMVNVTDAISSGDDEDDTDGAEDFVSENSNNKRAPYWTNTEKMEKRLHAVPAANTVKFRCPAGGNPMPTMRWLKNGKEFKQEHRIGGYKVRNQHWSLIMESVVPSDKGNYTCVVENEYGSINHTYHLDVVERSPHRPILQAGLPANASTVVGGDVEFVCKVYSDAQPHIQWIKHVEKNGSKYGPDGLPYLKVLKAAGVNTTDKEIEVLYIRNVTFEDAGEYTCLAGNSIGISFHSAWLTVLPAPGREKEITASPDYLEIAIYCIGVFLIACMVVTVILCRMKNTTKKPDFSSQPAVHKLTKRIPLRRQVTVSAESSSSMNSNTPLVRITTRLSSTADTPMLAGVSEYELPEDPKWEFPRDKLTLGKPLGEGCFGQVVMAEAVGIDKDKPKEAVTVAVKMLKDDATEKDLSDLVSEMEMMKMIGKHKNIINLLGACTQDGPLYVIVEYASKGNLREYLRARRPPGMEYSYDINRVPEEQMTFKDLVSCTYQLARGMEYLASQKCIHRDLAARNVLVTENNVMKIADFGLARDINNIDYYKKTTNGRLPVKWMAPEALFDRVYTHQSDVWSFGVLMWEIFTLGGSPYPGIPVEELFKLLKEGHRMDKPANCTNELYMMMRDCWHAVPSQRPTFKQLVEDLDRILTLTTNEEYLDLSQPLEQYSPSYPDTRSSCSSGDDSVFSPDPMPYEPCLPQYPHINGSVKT
T3 sequence (P00533 25-1210 T790M/L858R): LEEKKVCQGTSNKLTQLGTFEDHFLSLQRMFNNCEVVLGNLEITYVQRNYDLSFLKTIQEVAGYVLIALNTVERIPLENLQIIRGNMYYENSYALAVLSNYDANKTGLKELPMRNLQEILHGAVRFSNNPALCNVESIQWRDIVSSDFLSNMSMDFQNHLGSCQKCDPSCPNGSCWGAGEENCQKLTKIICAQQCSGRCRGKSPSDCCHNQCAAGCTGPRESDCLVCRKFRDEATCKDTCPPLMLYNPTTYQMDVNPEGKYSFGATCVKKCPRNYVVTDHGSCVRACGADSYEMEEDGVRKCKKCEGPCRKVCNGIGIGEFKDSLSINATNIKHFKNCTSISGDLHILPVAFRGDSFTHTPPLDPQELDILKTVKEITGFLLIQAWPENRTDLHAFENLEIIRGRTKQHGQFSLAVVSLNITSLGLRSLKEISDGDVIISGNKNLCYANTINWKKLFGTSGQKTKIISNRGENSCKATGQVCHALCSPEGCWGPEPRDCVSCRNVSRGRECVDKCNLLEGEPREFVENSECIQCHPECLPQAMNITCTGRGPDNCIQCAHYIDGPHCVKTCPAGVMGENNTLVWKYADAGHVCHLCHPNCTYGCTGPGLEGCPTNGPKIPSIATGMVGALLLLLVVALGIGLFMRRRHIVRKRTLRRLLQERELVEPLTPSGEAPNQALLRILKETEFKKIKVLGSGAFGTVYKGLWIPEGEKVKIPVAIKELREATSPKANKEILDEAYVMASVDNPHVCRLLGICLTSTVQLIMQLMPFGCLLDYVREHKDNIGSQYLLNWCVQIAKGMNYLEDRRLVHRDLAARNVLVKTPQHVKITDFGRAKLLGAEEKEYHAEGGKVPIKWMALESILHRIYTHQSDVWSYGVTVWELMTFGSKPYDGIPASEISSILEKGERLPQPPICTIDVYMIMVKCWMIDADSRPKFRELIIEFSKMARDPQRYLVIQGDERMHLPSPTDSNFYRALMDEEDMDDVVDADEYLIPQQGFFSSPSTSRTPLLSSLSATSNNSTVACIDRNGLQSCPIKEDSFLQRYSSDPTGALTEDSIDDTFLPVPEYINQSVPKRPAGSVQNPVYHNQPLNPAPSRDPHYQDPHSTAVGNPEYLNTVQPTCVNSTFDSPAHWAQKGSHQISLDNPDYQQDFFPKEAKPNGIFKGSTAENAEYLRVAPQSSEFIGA

As to `Cc1cn(-c2cc(C(=O)Nc3ccc(C)c(CNc4cnc5[nH]c(C(=O)O)cc5c4)c3)cc(C(F)(F)F)c2)cn1` [OR0653, 5-{2-Methyl-5-[3-(4-methyl-imidazol-1-yl)-5-trifluoromethyl-benzoylamino]-benzylamino}-1H-pyrrolo[2,3-b]pyridine-2-carboxylic acid], the inhibition at 0.1 µM at BRAF is below 50%; on EGFR (ErbB1), at least 50%; on EGFR (ErbB1) T790M L858R it was at least 50%; on FGFR2, below 50%; at KDR (VEGFR2) it was at least 50%; at PDGFRA (PDGFR alpha) it was at least 50%. Also, the inhibition at 0.1 µM on SRC was at least 50%; at FGFR1, below 50%; on VEGFR1 it was at least 50%; on PDGFRB it was below 50%. Moreover, the inhibition at 10 µM is at least 50% at ABL and below 50% at ABL T315I. Moreover, the EC50 in the test on A549 cell line and in the test with BxPC-3 cell line was at least 1000 nM in each case.

For orientation: inhibition means the change of the read-out against control, counted positive when it falls. For orientation: EC50 means the concentration needed to bring the measured effect to its halfway point.
